{"source": "paper PMC7066280", "about": "(Investigational New Drugs, 2019)", "key": {"[1]": {"assay": "Ivosidenib plasma PK after single and multiple 500 mg QD doses (dose expansion)", "type": "in vivo, human", "conditions": "for Cmax / AUC(0-t) / Tmax: human, plasma, oral, 500 mg", "experimental": "Additional predose samples were taken on cycle 1, day 8; cycle 1, day 15; cycle 3, day 1; and end of treatment.\n(§1) Plasma ivosidenib was measured using two validated liquid chromatography-tandem mass spectrometry (LC-MS/MS) methods. The lower limit of quantification (LLOQ) was 1.00 ng/mL (low-range assay) or 50.0 ng/mL (high-range assay). […] Plasma 2-HG concentrations were measured using a qualified LC-MS/MS method with an LLOQ of 30.0 ng/mL. Concentrations of 2-HG in tumor biopsy samples were quantified using qualified LC-MS/MS methods with an LLOQ of 7.5 μg/g for brain tumor homogenate, 100 ng/g for liver tumor homogenate (low-range assay), and 30 μg/g for liver tumor homogenate (high-range assay). Plasma 4β-OHC and cholesterol were measured using a validated LC-MS/MS method. The LLOQ was 5 ng/mL for 4β-OHC and 25 μg/mL for cholesterol in human plasma.\nPK parameters included area under the plasma concentration-time curve (AUC), maximum plasma concentration (Cmax), time to maximum plasma concentration (Tmax), terminal elimination half-life (t1/2), and apparent oral clearance at steady state (CLss/F). Accumulation ratio (Racc), based on Cmax and AUC, was also assessed during the dose escalation portion. PD (2-HG) parameters included baseline-effect value, area under the effect concentration-time curve (AUEC0-10h for the dose escalation portion, or AUEC0-8h for the dose escalation and expansion portions), percent change from baseline in AUEC (%BAUEC0-10h for the escalation portion, or %BAUEC0-8h for the dose escalation and expansion portions), average plasma concentration (Cavg), and percent inhibition for Cavg (%BCavg). For the dose escalation portion, the time-matched ratios of 4β-OHC to cholesterol were calculated."}, "[2]": {"system": "IDH1-mutant advanced solid tumors", "conditions": "Cmax,ss or AUCss vs best response, dose range tested", "text": "A total of 6 adverse event categories, based on both laboratory abnormalities and reported adverse events, were included in the exposure-response analyses. […] The efficacy endpoint of interest was best response. The exposure-response analyses used modeled nominal steady-state Cmax (Cmax,ss) or AUC (AUCss) as predictors for safety and efficacy variables in the two subgroups of tumor types described earlier."}, "[3]": {"system": "tumor 2-HG", "assay": "2-HG in paired tumor biopsy samples", "type": "in vivo", "conditions": "Homo sapiens; 500 mg QD multiple doses, cycle 3 day 1 and cycle 7 day 1, paired biopsies, 21 patients, all tumor types; read-out: 2-HG inhibition in tumors", "experimental": "Tumor biopsies were also collected for 2-HG assessment at screening, and at day 1 of cycle 3. Further biopsies were collected depending on the status of disease at cycle 7, day 1 or at any time that disease progression was suspected and/or at the end of treatment.\nas §1"}, "[4]": {"design": "method as in Agios data on file", "conditions": "ref Agios data on file; cited from earlier work"}, "[5]": {"assay": "Effect of intrinsic and extrinsic factors on ivosidenib CLss/F", "type": "in vivo, human", "conditions": "500 mg QD, cycle 2 day 1", "experimental": "Continuous factors assessed included age, body weight, body mass index, baseline creatinine clearance (CLcr), baseline estimated glomerular filtration rate (eGFR), and markers of hepatic function (alanine aminotransferase [ALT], alkaline phosphatase [ALP], aspartate aminotransferase [AST], bilirubin, total protein, and albumin). CLcr was calculated using the Cockcroft and Gault equation and eGFR was calculated using the Modification of Diet in Renal Disease – National Kidney Disease Education Program equations [15]. Categorical factors assessed included sex, ethnicity, race, disease status, concomitant CYP3A4 inhibitor and inducer status, baseline hepatic and renal function category, and tumor type. Renal function was categorized as normal (CLcr ≥ 90 mL/min or eGFR ≥90 mL/min/1.73 m^2), mild impairment (CLcr ≥ 60–89 mL/min or eGFR ≥60–89 mL/min/1.73 m^2), moderate impairment (CLcr ≥ 30–59 mL/min or eGFR ≥30–59 mL/min/1.73 m^2), and severe impairment (CLcr ≥ 15–29 mL/min or eGFR ≥15–29 mL/min/1.73 m^2). Hepatic function category was based on National Cancer Institute (NCI) organ dysfunction working group (ODWG) criteria for hepatic dysfunction (0 = normal, 1 = mild, 2 = moderate, 3 = severe, 4 = liver transplant)."}}, "note": "“Also recorded” adds a separate entry of the source. Like-named read-outs stand apart in the source and are kept apart here.", "data": [{"compound": "N#Cc1ccnc(N2C(=O)CC[C@H]2C(=O)N(c2cncc(F)c2)[C@H](C(=O)NC2CC(F)(F)C2)c2ccccc2Cl)c1", "note": "[ivosidenib]", "values": [{"measurement": "Cmax at steady state lower in glioma than in cholangiocarcinoma/chondrosarcoma", "setting": "[1]", "result": "~29", "unit": "%"}, {"measurement": "Cmax", "setting": "[1]; expansion cholangiocarcinoma, cycle 1 day 1, geometric mean (geometric CV%)", "result": 3660, "unit": "ng/mL"}, {"measurement": "AUC(0-t)", "setting": "[1]; expansion cholangiocarcinoma, cycle 1 day 1, geometric mean (geometric CV%), read-out: AUC0-8hr", "result": 19700, "unit": "ng·h/mL"}, {"measurement": "Tmax", "setting": "[1]; expansion cholangiocarcinoma, cycle 1 day 1, median (minimum; maximum)", "result": 3.08, "unit": "h"}, {"measurement": "Cmax", "setting": "[1]; expansion cholangiocarcinoma, cycle 2 day 1, geometric mean (geometric CV%)", "result": 4580, "unit": "ng/mL"}, {"measurement": "AUC(0-t)", "setting": "[1]; expansion cholangiocarcinoma, cycle 2 day 1, geometric mean (geometric CV%), read-out: AUC0-8hr", "result": 29000, "unit": "ng·h/mL"}, {"measurement": "AUC(0-t)", "setting": "[1]; expansion cholangiocarcinoma, cycle 2 day 1, geometric mean (geometric CV%), read-out: AUC0-24hr", "result": 75600, "unit": "ng·h/mL"}, {"measurement": "Tmax", "setting": "[1]; expansion cholangiocarcinoma, cycle 2 day 1, median (minimum; maximum)", "result": 2.03, "unit": "h"}, {"measurement": "Cmax", "setting": "[1]; expansion chondrosarcoma, cycle 1 day 1, geometric mean (geometric CV%)", "result": 4260, "unit": "ng/mL"}, {"measurement": "AUC(0-t)", "setting": "[1]; expansion chondrosarcoma, cycle 1 day 1, geometric mean (geometric CV%), read-out: AUC0-8hr", "result": 22900, "unit": "ng·h/mL"}, {"measurement": "Tmax", "setting": "[1]; expansion chondrosarcoma, cycle 1 day 1, median (minimum; maximum)", "result": 2.98, "unit": "h"}, {"measurement": "Cmax", "setting": "[1]; expansion chondrosarcoma, cycle 2 day 1, geometric mean (geometric CV%)", "result": 5300, "unit": "ng/mL"}, {"measurement": "AUC(0-t)", "setting": "[1]; expansion chondrosarcoma, cycle 2 day 1, geometric mean (geometric CV%), read-out: AUC0-8hr", "result": 36200, "unit": "ng·h/mL"}, {"measurement": "AUC(0-t)", "setting": "[1]; expansion chondrosarcoma, cycle 2 day 1, geometric mean (geometric CV%), read-out: AUC0-24hr", "result": 88700, "unit": "ng·h/mL"}, {"measurement": "Tmax", "setting": "[1]; expansion chondrosarcoma, cycle 2 day 1, median (minimum; maximum)", "result": 2.08, "unit": "h"}, {"measurement": "Cmax", "setting": "[1]; expansion enhancing glioma, cycle 1 day 1, geometric mean (geometric CV%)", "result": 3140, "unit": "ng/mL"}, {"measurement": "AUC(0-t)", "setting": "[1]; expansion enhancing glioma, cycle 1 day 1, geometric mean (geometric CV%), read-out: AUC0-8hr", "result": 16000, "unit": "ng·h/mL"}, {"measurement": "Tmax", "setting": "[1]; expansion enhancing glioma, cycle 1 day 1, median (minimum; maximum)", "result": 3.01, "unit": "h"}, {"measurement": "Cmax", "setting": "[1]; expansion enhancing glioma, cycle 2 day 1, geometric mean (geometric CV%)", "result": 3800, "unit": "ng/mL"}, {"measurement": "AUC(0-t)", "setting": "[1]; expansion enhancing glioma, cycle 2 day 1, geometric mean (geometric CV%), read-out: AUC0-8hr", "result": 24400, "unit": "ng·h/mL"}, {"measurement": "AUC(0-t)", "setting": "[1]; expansion enhancing glioma, cycle 2 day 1, geometric mean (geometric CV%), read-out: AUC0-24hr", "result": 62600, "unit": "ng·h/mL"}, {"measurement": "Tmax", "setting": "[1]; expansion enhancing glioma, cycle 2 day 1, median (minimum; maximum)", "result": 2.03, "unit": "h"}, {"measurement": "Cmax", "setting": "[1]; expansion non-enhancing glioma, cycle 1 day 1, geometric mean (geometric CV%)", "result": 2790, "unit": "ng/mL"}, {"measurement": "AUC(0-t)", "setting": "[1]; expansion non-enhancing glioma, cycle 1 day 1, geometric mean (geometric CV%), read-out: AUC0-8hr", "result": 14900, "unit": "ng·h/mL"}, {"measurement": "Tmax", "setting": "[1]; expansion non-enhancing glioma, cycle 1 day 1, median (minimum; maximum)", "result": 2.58, "unit": "h"}, {"measurement": "Cmax", "setting": "[1]; expansion non-enhancing glioma, cycle 2 day 1, geometric mean (geometric CV%)", "result": 3540, "unit": "ng/mL"}, {"measurement": "AUC(0-t)", "setting": "[1]; expansion non-enhancing glioma, cycle 2 day 1, geometric mean (geometric CV%), read-out: AUC0-8hr", "result": 22200, "unit": "ng·h/mL"}, {"measurement": "AUC(0-t)", "setting": "[1]; expansion non-enhancing glioma, cycle 2 day 1, geometric mean (geometric CV%), read-out: AUC0-24hr", "result": 55700, "unit": "ng·h/mL"}, {"measurement": "Tmax", "setting": "[1]; expansion non-enhancing glioma, cycle 2 day 1, median (minimum; maximum)", "result": 3.05, "unit": "h"}, {"measurement": "Cmax", "setting": "[1]; expansion other solid tumors, cycle 1 day 1, geometric mean (geometric CV%)", "result": 2290, "unit": "ng/mL"}, {"measurement": "AUC(0-t)", "setting": "[1]; expansion other solid tumors, cycle 1 day 1, geometric mean (geometric CV%), read-out: AUC0-8hr", "result": 13800, "unit": "ng·h/mL"}, {"measurement": "Tmax", "setting": "[1]; expansion other solid tumors, cycle 1 day 1, median (minimum; maximum)", "result": 2.55, "unit": "h"}, {"measurement": "Cmax", "setting": "[1]; expansion other solid tumors, cycle 2 day 1, geometric mean (geometric CV%)", "result": 4130, "unit": "ng/mL"}, {"measurement": "AUC(0-t)", "setting": "[1]; expansion other solid tumors, cycle 2 day 1, geometric mean (geometric CV%), read-out: AUC0-8hr", "result": 25100, "unit": "ng·h/mL"}, {"measurement": "AUC(0-t)", "setting": "[1]; expansion other solid tumors, cycle 2 day 1, geometric mean (geometric CV%), read-out: AUC0-24hr", "result": 62200, "unit": "ng·h/mL"}, {"measurement": "Tmax", "setting": "[1]; expansion other solid tumors, cycle 2 day 1, median (minimum; maximum)", "result": 1.98, "unit": "h"}, {"measurement": "Cmax", "setting": "[1]; expansion overall, cycle 1 day 1, geometric mean (geometric CV%)", "result": 3310, "unit": "ng/mL"}, {"measurement": "AUC(0-t)", "setting": "[1]; expansion overall, cycle 1 day 1, geometric mean (geometric CV%), read-out: AUC0-8hr", "result": 17600, "unit": "ng·h/mL"}, {"measurement": "Tmax", "setting": "[1]; expansion overall, cycle 1 day 1, median (minimum; maximum)", "result": 3, "unit": "h"}, {"measurement": "Cmax", "setting": "[1]; expansion overall, cycle 2 day 1, geometric mean (geometric CV%)", "result": 4210, "unit": "ng/mL"}, {"measurement": "AUC(0-t)", "setting": "[1]; expansion overall, cycle 2 day 1, geometric mean (geometric CV%), read-out: AUC0-8hr", "result": 26600, "unit": "ng·h/mL"}, {"measurement": "AUC(0-t)", "setting": "[1]; expansion overall, cycle 2 day 1, geometric mean (geometric CV%), read-out: AUC0-24hr", "result": 68500, "unit": "ng·h/mL"}, {"measurement": "Tmax", "setting": "[1]; expansion overall, cycle 2 day 1, median (minimum; maximum)", "result": 2.14, "unit": "h"}, {"measurement": "exposure-efficacy relationship", "setting": "[2]", "result": "flat"}, {"measurement": "inhibition at 500 mg", "setting": "[3]", "result": "≤ 100", "unit": "%"}, {"measurement": "FDA Biopharmaceutical Classification System class", "setting": "[4]", "result": "BCS Class II"}, {"measurement": "permeability (BCS)", "setting": "[4]", "result": "high permeability"}, {"measurement": "solubility (BCS)", "setting": "[4]", "result": "low solubility"}, {"measurement": "effect of concomitant weak CYP3A4 inhibitors or inducers on CLss/F", "setting": "[5]", "result": "no apparent effect; also recorded: did not appear to affect"}, {"measurement": "effect of mild or moderate renal impairment or mild hepatic impairment on CLss/F", "setting": "[5]", "result": "no apparent effect"}]}]}
